In the Kinase Knowledgebase extract (Sharma et al. 2016):

Assays:
[1] = molecular target: EGFR (human), P00533 [WT]
[2] = molecular target: EGFR (human) (UniProt P00533); conditions: hcc827
[3] = molecular target: EGFR (human), P00533 [Inhibition of EGFR(L858RT/790M) Kinase Activity]
Sequence of EGFR (human), P00533 [Inhibition of EGFR(L858RT/790M) Kinase Activity] (P00533 whole entry, looked up, change not shown): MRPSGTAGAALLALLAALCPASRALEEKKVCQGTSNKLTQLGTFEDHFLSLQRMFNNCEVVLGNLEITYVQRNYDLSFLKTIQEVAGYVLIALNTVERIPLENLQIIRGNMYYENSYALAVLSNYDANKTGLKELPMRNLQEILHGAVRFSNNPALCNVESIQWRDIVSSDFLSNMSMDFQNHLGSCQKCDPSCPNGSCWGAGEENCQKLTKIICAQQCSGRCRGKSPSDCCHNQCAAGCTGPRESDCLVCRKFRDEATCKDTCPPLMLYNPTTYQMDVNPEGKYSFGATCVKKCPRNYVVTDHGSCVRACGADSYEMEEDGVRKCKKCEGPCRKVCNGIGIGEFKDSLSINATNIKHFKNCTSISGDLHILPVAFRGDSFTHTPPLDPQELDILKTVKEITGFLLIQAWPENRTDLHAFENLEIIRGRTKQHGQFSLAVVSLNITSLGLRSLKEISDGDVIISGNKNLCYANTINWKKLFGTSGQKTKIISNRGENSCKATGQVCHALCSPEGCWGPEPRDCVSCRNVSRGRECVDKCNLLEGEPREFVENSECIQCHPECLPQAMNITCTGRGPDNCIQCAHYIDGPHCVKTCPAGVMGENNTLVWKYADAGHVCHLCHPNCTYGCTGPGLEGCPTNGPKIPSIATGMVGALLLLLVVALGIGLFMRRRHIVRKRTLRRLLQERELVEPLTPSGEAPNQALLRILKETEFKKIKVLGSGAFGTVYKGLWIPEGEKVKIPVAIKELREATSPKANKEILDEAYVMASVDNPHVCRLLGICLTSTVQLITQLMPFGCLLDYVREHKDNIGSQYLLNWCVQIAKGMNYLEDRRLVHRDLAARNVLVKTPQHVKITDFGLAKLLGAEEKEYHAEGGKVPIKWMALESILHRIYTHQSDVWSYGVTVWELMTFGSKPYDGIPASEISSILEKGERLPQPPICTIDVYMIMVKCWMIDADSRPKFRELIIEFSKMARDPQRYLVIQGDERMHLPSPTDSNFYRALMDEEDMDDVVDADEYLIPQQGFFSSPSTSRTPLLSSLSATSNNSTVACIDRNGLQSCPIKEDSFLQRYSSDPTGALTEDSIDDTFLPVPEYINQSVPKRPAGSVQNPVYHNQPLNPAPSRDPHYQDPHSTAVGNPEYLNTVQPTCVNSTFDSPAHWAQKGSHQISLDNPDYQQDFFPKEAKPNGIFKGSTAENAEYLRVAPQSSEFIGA

Sequence of EGFR (human), P00533 [WT] (P00533 whole entry, looked up): as the sequence (P00533 whole entry, looked up, change not shown) above
Sequence of EGFR (human) (P00533 whole entry, looked up): as the sequence (P00533 whole entry, looked up, change not shown) above

| IC50 [1] [nM] | IC50 [2] [nM] | IC50 [3] [nM] | Compound |
| --- | --- | --- | --- |
| 60 to 100 | 301 to 999 | – | C=CC(=O)Nc1ccc(-c2c(-c3ccccc3)oc3ncnc(N[C@H](CO)c4ccccc4)c23)cc1 |
| 101 to 900 | – | 10 to 499 | C=CC(=O)Nc1cccc(-c2c(-c3ccccc3)oc3ncnc(N[C@H](COC(=O)C=C)c4ccccc4)c23)c1 |
| < 59 | – | – | O=C(O)[C@@H](Nc1ncnc2oc(-c3ccccc3)c(Br)c12)c1ccccc1 |
| < 59 | 1 to 99 | – | CC(=O)OC/C=C/C(=O)N1CCc2c(sc3ncnc(N[C@H](C)c4ccccc4)c23)C1 |
| 101 to 900 | – | – | O=C(O)[C@@H](Nc1ncnc2sc(-c3ccccc3)cc12)c1ccccc1 |
| < 59 | 1 to 99 | – | CN(C)C/C=C/C(=O)N1CCc2c(sc3ncnc(N[C@H](COCc4ccc(F)cc4)c4ccccc4)c23)C1 |
| 101 to 900 | 100 to 300 | – | CC(=O)Nc1cccc(-c2c(-c3ccccc3)oc3ncnc(N[C@H](CO)c4ccccc4)c23)c1 |
| 101 to 900 | 1 to 99 | – | CN(C)C/C=C/C(=O)N1CCc2c(sc3ncnc(N[C@H](CO)Cc4ccccc4)c23)C1 |
| 60 to 100 | 100 to 300 | – | CC(=O)Nc1ccc(-c2c(-c3ccccc3)oc3ncnc(N[C@H](CO)c4ccccc4)c23)cc1 |
| < 59 | 1 to 99 | – | CN(C)C/C=C/C(=O)N1CCc2c(sc3ncnc(N[C@H](COCc4ccncc4)c4ccccc4)c23)C1 |
| 101 to 900 | – | – | OC[C@@H](Nc1ncnc2oc(-c3ccccc3)c(Cl)c12)c1ccccc1 |
| 60 to 100 | – | – | C/C=C/C(=O)N1CCc2c(sc3ncnc(N[C@H](COCc4cccc(F)c4)c4ccccc4)c23)C1 |
| 101 to 900 | – | – | O=C(O)[C@@H](Nc1ncnc2sc3c(c12)CCC3)c1ccccc1 |
| – | 301 to 999 | – | COC(=O)[C@@H](Nc1ncnc2oc(-c3ccccc3)c(-c3ccccc3)c12)c1ccccc1 |
| < 59 | 1 to 99 | – | CN(C)C/C=C/C(=O)N1CCc2c(sc3ncnc(N[C@H](CCOCc4ccccc4F)c4ccccc4)c23)C1 |
| 101 to 900 | 100 to 300 | – | COc1ccc(-c2c(-c3ccccc3)oc3ncnc(N[C@H](CO)c4ccccc4)c23)cc1 |
| < 59 | 1 to 99 | – | C[C@@H](Nc1ncnc2sc3c(c12)CCN(C(=O)/C=C/CNN1CCCCC1)C3)c1ccccc1 |
| < 59 | 100 to 300 | – | C=CC(=O)Nc1cccc(-c2cc3c(N[C@H](CO)c4ccccc4)ncnc3s2)c1 |
| < 59 | 1 to 99 | – | CN(C)C/C=C/C(=O)N1CCc2c(sc3ncnc(N[C@H](COCc4cccnc4)c4ccccc4)c23)C1 |
| 101 to 900 | – | – | CC#CC(=O)Nc1cccc(-c2c(-c3ccccc3)oc3ncnc(N[C@H](COC)c4ccccc4)c23)c1 |

| IC50 [1] [nM] | IC50 [2] [nM] | IC50 [3] [nM] | Compound |
| --- | --- | --- | --- |
| < 59 | 1 to 99 | – | C=CC(=O)Nc1cccc(-c2csc3ncnc(N[C@H](CO)c4ccccc4)c23)c1 |
| < 59 | – | – | COC[C@@H](Nc1ncnc2sc3c(c12)CCN(C(=O)/C=C/CN(C)C)C3)c1ccccc1 |
| 101 to 900 | 1 to 99 | – | CC(C)NC/C=C/C(=O)N1CCc2c(sc3ncnc(N[C@H](C)c4ccccc4)c23)C1 |
| – | 301 to 999 | – | OC[C@@H](Nc1ncnc2sc3c(c12)CCC3)c1ccccc1 |
| 101 to 900 | – | – | O=C(O)[C@@H](Nc1ncnc2sc3c(c12)CCCC3)c1ccccc1 |
| – | 301 to 999 | – | Cc1sc2ncnc(N[C@H](CO)c3ccccc3)c2c1C |
| < 59 | 1 to 99 | – | CCN(C/C=C/C(=O)N1CCc2c(sc3ncnc(N[C@H](C)c4ccccc4)c23)C1)CCO |
| – | 301 to 999 | – | CCOC(=O)[C@@H](Nc1ncnc2oc(-c3ccccc3)c(-c3ccccc3)c12)c1ccccc1 |
| – | 301 to 999 | – | CC[C@@H](Nc1ncnc2oc(-c3ccccc3)cc12)c1ccccc1 |
| 60 to 100 | 1 to 99 | – | CCN(CC)C/C=C/C(=O)N1CCc2c(sc3ncnc(N[C@H](COC)c4ccccc4)c23)C1 |
| < 59 | – | – | CC(=O)OC[C@@H](Nc1ncnc2sc3c(c12)CCN(C(=O)/C=C/CN(C)C)C3)c1ccccc1 |
| 60 to 100 | 301 to 999 | – | CN(C)C/C=C/C(=O)N1CCc2c(sc3ncnc(N[C@H](CO[Si](C)(C)C(C)(C)C)c4ccccc4)c23)C1 |
| 101 to 900 | 301 to 999 | – | CC[C@@H](Nc1ncnc2sc3c(c12)CCCC3)c1ccccc1 |
| 101 to 900 | 301 to 999 | – | C[C@@H](Nc1ncnc2sc3c(c12)CCN(C(=O)/C=C/CNc1ccccc1)C3)c1ccccc1 |
| < 59 | 1 to 99 | – | C[C@@H](Nc1ncnc2sc3c(c12)CCN(C(=O)/C=C/CN(C)C)C3)c1ccc(Br)cc1 |
| 101 to 900 | 301 to 999 | – | OC[C@@H](Nc1ncnc2oc(-c3ccccc3)c(-c3ccccc3)c12)c1ccccc1 |
| < 59 | – | – | O=C(O)[C@@H](Nc1ncnc2oc(-c3ccccc3)c(-c3ccccc3)c12)c1ccccc1 |
| 101 to 900 | 1 to 99 | – | C=C(CN(C)C)C(=O)N1CCc2c(sc3ncnc(N[C@H](CO)c4ccccc4)c23)C1 |
| < 59 | – | – | CCN(CC)C/C=C/C(=O)N1CCc2c(sc3ncnc(N[C@H](CCO)c4ccccc4)c23)C1 |
| 101 to 900 | 100 to 300 | – | OC[C@@H](Nc1ncnc2sc3c(c12)CCCC3)c1ccccc1 |

| IC50 [1] [nM] | IC50 [2] [nM] | IC50 [3] [nM] | Compound |
| --- | --- | --- | --- |
| 101 to 900 | – | – | OC[C@@H](Nc1ncnc2sc(-c3ccccc3)cc12)c1ccccc1 |
| 101 to 900 | – | – | O=C(O)/C=C\C(=O)N1CCc2c(sc3ncnc(N[C@H](CO)c4ccccc4)c23)C1 |
| < 59 | 1 to 99 | – | CN(C)C/C=C/C(=O)N1CCc2c(sc3ncnc(N[C@H](CCO)c4ccccc4)c23)C1 |
| < 59 | 1 to 99 | – | CCC[C@@H](Nc1ncnc2sc3c(c12)CCN(C(=O)/C=C/CN(C)C)C3)c1ccccc1 |
| 101 to 900 | – | – | OC[C@@H](Nc1ncnc2sc(-c3ccccc3)c(Cl)c12)c1ccccc1 |
| 60 to 100 | 301 to 999 | – | C=CC(=O)Nc1cccc(-c2coc3ncnc(N[C@H](CO)c4ccccc4)c23)c1 |
| – | 301 to 999 | – | CC(=O)OC[C@@H](Nc1ncnc2oc(-c3ccccc3)c(Br)c12)c1ccccc1 |
| – | 301 to 999 | – | CC[C@@H](Nc1ncnc2oc(-c3ccccc3)c(-c3ccccc3)c12)c1ccccc1 |
| 101 to 900 | 301 to 999 | – | C=CC(=O)N1CCc2c(sc3ncnc(N[C@H](CO[Si](C)(C)C(C)(C)C)c4ccccc4)c23)C1 |
| < 59 | 1 to 99 | – | C[C@@H](Nc1ncnc2sc3c(c12)CCN(C(=O)/C=C/CN(C)CCO)C3)c1ccccc1 |
| 101 to 900 | – | – | C=CC(=O)Nc1cccc(-c2c(-c3ccccc3)oc3ncnc(N(C)[C@H](COC)c4ccccc4)c23)c1 |
| 101 to 900 | – | – | C=CC(=O)Nc1ccc(-c2nc3c(N[C@H](CO)c4ccccc4)ncnc3o2)cc1 |
| – | 1 to 99 | – | CCOC(=O)/C=C/C(=O)N1CCc2c(sc3ncnc(N[C@H](CO)c4ccccc4)c23)C1 |
| < 59 | 1 to 99 | – | C[C@@H](Nc1ncnc2sc3c(c12)CCN(C(=O)/C=C/CN=[N+]=[N-])C3)c1ccccc1 |
| 101 to 900 | 100 to 300 | – | OC[C@@H](Nc1ncnc2oc(-c3ccccc3)c(-c3ccoc3)c12)c1ccccc1 |
| < 59 | – | – | COCCN(C)C/C=C/C(=O)N1CCc2c(sc3ncnc(N[C@H](CO)c4ccccc4)c23)C1 |
| 60 to 100 | – | – | COc1ccc(-c2oc3ncnc(N[C@H](CO)c4ccccc4)c3c2-c2ccc(OC)cc2)cc1 |
| 101 to 900 | 1 to 99 | – | C=CC(=O)Nc1ccc(-c2c(-c3ccccc3)oc3ncnc(N[C@H](C)c4ccccc4)c23)cc1 |
| 101 to 900 | 301 to 999 | – | OC[C@@H](Nc1ncnc2oc(-c3ccccc3)c(-c3ccco3)c12)c1ccccc1 |
